This is an account of results in patent publication US6251932A, “Immunophilin ligands” (ASTA Medica AG, priority 1998, dated 2001).

In test [1] the test system is IL-2 proliferation. Description: Inhibition of IL-2 proliferation (published indoline-2-carboxamide). It counts as cell-based. To be noted: 10 μmol; new measurements. From the text: A further compound having immunosuppressant properties was discovered during the screening of substance mixtures (G. Quinkert, H. Bang and D. Reichert, Helv. Chim. Acta 1996, 79, 1260).

In test [2] the test system is IL-2 proliferation. Conditions: published, cited from earlier work.

Like-named read-outs stand apart in the source and are kept apart here.

On to indoline-2-carboxamide, for which the “IL-2-dependent inhibition of proliferation” value in the test on IL-2 proliferation [1] worked out at 29%. Besides, the “inhibition of IL-2 proliferation” value is 12% in the test on IL-2 proliferation [2] (1 μmol) and 77% in the test on IL-2 proliferation [2] (10 μmol).
